From US10564162B2, “Predictive biomarkers” (BIONOMICS LIMITED, priority 2014, dated 2020)

Tests used:
[1] = test system: Serum Amyloid P-Component (SAP); test: Disruptor-1 trial: plasma SAP level post versus pre BNC105P infusion (Human CustomMAP, Luminex); assay type: in vivo
Source text: (§1) The objective of the study was to determine the response rate of patients administered BNC105P (vascular disrupting agent) in combination with everolimus (mTOR inhibitor) in patients who had progressed from prior tyrosine kinase inhibitor therapy. In addition, the present inventors determined the improvement in 6-months progression free survival (PFS) with the addition of BNC105P to everolimus (Afinitor). A control group of patients received everolimus alone.
(§2) Patients in the BNC105P in combination with everolimus study group (the “combination arm”) were administered 10 mg oral everolimus daily. On days 1 and 8 of the 21 day cycle period, the patients were administered 16 mg/m^2 BNC105P, which had been determined to be the maximum tolerated dose, by intravenous infusion over a 10 minute period (FIG. 1). Treatment was continued until disease progressed, intolerable toxicity became apparent, or until consent was withdrawn. A control group of patients were administered with everolimus alone.
(§3) Human EDTA plasma samples were taken from patients to quantitatively measure the concentration of 56 analytes from the Human CustomMAP at Myriad RBM (MRBM). […]
(§4) The biomarker levels at each time and the change in biomarker levels were examined. The mean change from pre- to post-infusion was calculated as the mean of C1D1 pre-infusion minus C1D1 post-infusion. […]

[2] = test system: Sex Hormone-Binding Globulin (SHBG); test: Disruptor-1 trial: plasma SHBG level post versus pre BNC105P infusion (Human CustomMAP, Luminex); assay type: in vivo
Source text: as §1, §2, §3, §4

[3] = test system: Myoglobin (MB); test: Disruptor-1 trial: plasma Myoglobin level post versus pre BNC105P infusion (Human CustomMAP, Luminex); assay type: in vivo
Source text: as §1, §2, §3, §4

[4] = test system: Matrix Metalloproteinase-9 (MMP-9); test: Disruptor-1 trial: plasma MMP-9 level post versus pre BNC105P infusion (Human CustomMAP, Luminex); assay type: in vivo
Source text: as §1, §2, §3, §4

[5] = test system: Stem Cell Factor (SCF); test: Disruptor-1 trial: plasma SCF level post versus pre BNC105P infusion (Human CustomMAP, Luminex); assay type: in vivo
Source text: as §1, §2, §3, §4

[6] = Maximum tolerated dose of BNC105P in patients; assay type: in vivo, Human; conditions: intravenous infusion over 10 minutes, days 1 and 8 of 21 day cycle, with 10 mg oral everolimus daily
Protocol: as §2

[7] = test system: tumour endothelial cells (activated) and normal endothelial cells (quiescent); test: Potency against activated versus quiescent endothelial cells; assay type: cell-based
[8] = test system: tubulin; test: Tubulin polymerisation inhibition; assay type: biochemical
[9] = plasma, renal cell carcinoma patients, 16 mg/m^2 BNC105P i.v. infusion plus 10 mg oral everolimus daily, post versus pre infusion
[10] = post/baseline plasma ratio after BNC105P, patients split at the median

SMILES	Median Post/Baseline Ratio, SAP [1, 9]	Biomarker change Ratio Range associated with better PFS, SAP [1, 10]	Median Post/Baseline Ratio, SHBG [2, 9]	Biomarker change Ratio Range associated with better PFS, SHBG [2, 10]	Median Post/Baseline Ratio, Myoglobin [3, 9]	Biomarker change Ratio Range associated with better PFS, Myoglobin [3, 10]	Median Post/Baseline Ratio, MMP-9 [4, 9]	Biomarker change Ratio Range associated with better PFS, MMP-9 [4, 10]	Median Post/Baseline Ratio, SCF [5, 9]	Biomarker change Ratio Range associated with better PFS, SCF [5, 10]	maximum tolerated dose [6] [mg/m^2]	selectivity between activated (tumour) and quiescent (normal) endothelial cells (in words) [7]	tubulin polymerisation inhibition (in words) [8]
COc1cc(C(=O)c2c(C)oc3c(OP(=O)([O-])[O-])c(OC)ccc23)cc(OC)c1OC.[Na+].[Na+] [BNC105P, disodium [6-methoxy-2-methyl-3-(3,4,5-trimethoxybenzoyl)-1-benzofuran-7-yl]phosphate]	0.95	≤0.95	0.92	≤0.92	0.935	≤0.935	1.060	>1.060	1.0	>1	16		
COc1ccc(/C=C\c2cc(OC)c(OC)c(OC)c2)cc1O [Combretastatin A4, reference compound]												equally potent against quiescent and activated endothelial cells	
COc1cc(C(=O)c2c(C)oc3c(O)c(OC)ccc23)cc(OC)c1OC [III, 2-methyl-7-hydroxy-3-(3,4,5-trimethoxybenzoyl)-6-methoxybenzofuran]												show selectivity towards tumor endothelial cells (activated) over normal endothelial cells (quiescent)	potent tubulin polymerisation inhibitors
